Assay results published in ChEMBL document CHEMBL5052824, “Novel sesquiterpenoid analogs” (2020).
Active and inactive are the calls of the source. The rule behind the calls is not given here.

What was measured:
MDA-MB-231 [1] = test: Binding affinity to cysteine residues of protein in human MDA-MB-231 lysates at 30 uM incubated for 1 hr and measured by SDS-PAGE analysis; assay type: subcellular
MDA-MB-231 [2] = test: Binding affinity to cysteine residue of protein in human MDA-MB-231 lysates at 30 uM incubated for 1 hr and measured in presence of cysteine-reactive reagent JW-RF-001 by SDS-PAGE analysis; assay type: subcellular
[3] = target: T1, DNA polymerase epsilon subunit 3 (Homo sapiens) (UniProt Q9NRF9); test: Binding affinity towards wild-type POLE3 overexpressed in human 293T cells measured after 1 hr by SDS-PAGE analysis; assay type: cell-based; conditions: HEK293T
T1 sequence (whole entry): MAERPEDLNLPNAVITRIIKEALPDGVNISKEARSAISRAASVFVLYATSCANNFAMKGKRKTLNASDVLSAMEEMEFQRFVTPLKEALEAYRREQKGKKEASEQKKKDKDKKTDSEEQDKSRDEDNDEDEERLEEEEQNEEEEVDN

HeLa [4] = test: Induction of DNA damage in human HeLa cells at 30 uM assessed as increase in gamma-H2AX level in presence of 30 uM etoposide and measured by DAPI staining method relative to control; assay type: functional, cell-based
HeLa [5] = test: Induction of DNA damage in human HeLa cells at 30 uM assessed as increase in gamma-H2AX level and measured by DAPI staining method relative to control; assay type: functional, cell-based
HeLa [6] = test: Downregulation of DNA ligase 3 expression in POLE3 knocked down human HeLa cells and measured after 6 hrs; assay type: functional, cell-based
HeLa [7] = test: Downregulation of PEA15 expression in POLE3 knocked down human HeLa cells and measured after 6 hrs; assay type: functional, cell-based
HeLa [8] = test: Induction of DNA damage in POLE3 knocked down human HeLa cells at 30 uM assessed as increase in gamma-H2AX level in presence of 30 uM etoposide and measured by DAPI staining method relative to control; assay type: functional, cell-based
[9] = Upregulation of POLE expression in POLE3 knocked down human HeLa cells and measured as fold change after 6 hrs; assay type: functional
HeLa [10] = test: Downregulation of GIT2 expression in POLE3 knocked down human HeLa cells and measured after 6 hrs; assay type: functional, cell-based
HeLa [11] = test: Downregulation of GEMIN2 expression in POLE3 knocked down human HeLa cells and measured after 6 hrs; assay type: functional, cell-based

Activity (MDA-MB-231 [1])	Activity (MDA-MB-231 [2])	Kinact [3]	Compound	Activity (HeLa [4])	Activity (HeLa [5])	Activity (HeLa [6])	Activity (HeLa [7])	Activity (HeLa [8])	fold change (FC) [9]	Activity (HeLa [10])	Activity (HeLa [11])
Active	inactive		C=C1C[C@@]2(C[C@H](C)[C@H]3CC=C(CN=[N+]=[N-])C(=O)[C@@H]3O2)OC1=O								
		0.27 min⁻¹	C=C1C[C@@]2(C[C@H](C)[C@H]3CC=C(C)C(=O)[C@@H]3O2)OC1=O	Active	inactive	Active	Active	Active	4	Active	Active
			COc1cc([C@@H]2c3cc4c(cc3[C@@H](O[C@@H]3O[C@@H]5CO[C@@H](C)O[C@H]5[C@H](O)[C@H]3O)[C@H]3COC(=O)[C@H]23)OCO4)cc(OC)c1O		Active						
